# According to US7868135B2, “Compositions of lipopeptide antibiotic derivatives and methods of use thereof” (priority 2003, dated 2011):
# Experiments:
# Staphylococcus aureus = type: cell-based; conditions: for Post Antibiotic Effect (hours) 0.5 × MIC: exposure one hour at 0.5 × MIC, S. aureus log phase; for Post Antibiotic Effect (hours) 1 × MIC: exposure one hour at 1 × MIC; for Post Antibiotic Effect (hours) 2 × MIC: exposure one hour at 2 × MIC; for Post Antibiotic Effect (hours) 4 × MIC: exposure one hour at 4 × MIC
# Description: An exemplary pharmacokinetic parameter to aid in characterizing the properties of lipopeptide derivative compounds of the disclosure is post-antibiotic effect (PAE) of a lipopeptide derivative. For example, a bacterial culture with an initial count of 10^6 to 10^7 colony forming units per ml (CFU/ml) is treated with a certain concentration of lipopetide derivative for a certain time and a parallel (control) culture is left untreated. After treatment, the lipopetide derivative is removed from the culture (e.g., by dilution 1:1000 in fresh, lipopetide derivative-free medium), and the untreated culture is manipulated in the same way. Then the cultures are further incubated and monitored for bacterial growth over time. […] By way of background and not wishing to be bound by theory, a lipopeptide derivative having a measurable PAE activity will likely provide additional time for the host immune system to remove bacteria that might have survived antibiotic treatment and reproduced after the antibiotic is degraded, removed or filtered from the circulatory system. A longer PAE can influence the clinical outcome of antimicrobial therapy (i.e., a lower dose of a lipopetide derivative may be used to treat an infection or the frequency of a dosing regimen can be reduced).
# After removal of the lipopeptide compounds, bacterial titre was determined each hour to monitor bacterial re-growth. The PAE duration is defined as the difference in time required for antimicrobial exposed bacterial cells versus unexposed bacterial cells to achieve an increase of 1 log10 unit in CFU/mL.
# [1] = system: Streptococcus pneumoniae (SPN032, ATCC 1081); assay: Intranasal murine lung infection model; type: in vivo; conditions: Swiss CD1 mice, i.n. S. pneumoniae, i.v. treatment at 3, 24 and 48 hours post-infection, deaths over ten days
# Description: Other exemplary in vivo models of infection that may be used to assess, for example, the efficacy of an antimicrobial lipopeptide of the instant disclosure include the following: (A) a mouse (murine) model of lung infection (pneumonia) wherein the bacterial infection is administered intranasally (i.n.); (B) a murine thigh muscle model wherein the bacterial infection is administered intramuscularly (i.m.) in normal or neutropenic (immunocompromised) mice; and (C) a combination murine thigh muscle model (i.m. infection)/lung (i.n.) infection.
# Antimicrobial lipopeptide derivatives of the instant invention were tested for antimicrobial activity against Gram-positive bacteria in an intranasal (i.n.) murine lung infection model (i.e., bacteria were innoculated i.n. and lipopeptide compounds were administered i.v.). Streptococcus pneumoniae (SPN032, ATCC 1081) were grown on 5% sheep blood agar plates for 24 h at 37° C., harvested and then resuspended in 0.9% saline. A group of eight Swiss CD1 mice were sedated with 2% isoflurane, and each was infected i.n. dropwise to the nares with 50 μl of the prepared bacterial inoculum (i.e., a dose of about 10^6 CFU/mouse). […] The ED50 (mg/kg) for each compound was calculated using the method of Reed and Meunch (Am. J. Hyg. 27: 493, 1938).
# [2] = Acute toxicity, maximum tolerated dose (MTD); conditions: Swiss CD1, mouse, in vivo, iv
# Description: Another measure of toxicity is the maximum tolerated dose (MTD), which is determined as a dose level that is not accompanied by mortality or life-threatening toxicity. The dose ratio between toxic and therapeutic effect is the therapeutic index. […] The data obtained from these cell culture assays and animal studies can be used in formulating a dosage range that is not toxic for use in human subjects. […] The dosage may vary within this range depending upon the dosage form employed and the route of administration utilized. The exact formulation, route of administration and dosage can be chosen by the individual physician in view of the patient's condition or need thereof (see, e.g., Fingl et al., 1975, In: The Pharmacological Basis of Therapeutics, Chapter 1).
# For example, to examine acute toxicity, lipopeptide antibiotics of the invention can be tested in an animal model, such as Swiss CD1 mice, to determine the MTD. In certain embodiments, the animals used to test toxicity of a particular compound can be approximately 5-6 weeks old at the start of the experiment and weigh 22-26 g. The lipopeptides may be administered intravenously (i.v.) into, for example, the caudal tail vein at dose levels that range from about 50 to about 500 mg/kg, or from about 75 to about 250 mg/kg, or from about 100 to about 200 mg/kg, or at a dose range at or below 100 mg/kg. The animals are generally observed immediately after administration, 1-2 hours post administration, 5-8 hours post administration, and once daily thereafter. Observations include both the activity level of the mouse as well as any physical side effects from the administered dose. The animal weight is recorded on day 0 (immediately before dosing) and on day 7.
# [3] = system: S. pneumoniae (SPN 0032, ATCC 10813); assay: Intraperitoneal murine model of protection against infection (ED50, Table 21); type: in vivo, Streptococcus pneumoniae; conditions: Swiss CD1 mice infected i.p., compound i.v.
# Excerpt: (§1) A variety of in vivo models may be used to assess the antimicrobial properties of lipopeptide derivative compounds of this disclosure. For example, antimicrobial compounds of the instant disclosure may be tested for efficacy by measuring a compound's ability to protect a mouse against a microbial infection, such as an infection or disease caused by or related to Gram-positive bacteria, including Staphylococcus aureus, Streptococcus pneumoniae, and Enterococcus faecalis. […] A certain period after infection, mice are then individually treated, for example intravenously (i.v.), with a lipopeptide derivative of this disclosure.
# (§2) Antimicrobial lipopeptide derivatives of the instant invention were tested for antimicrobial activity against Gram-positive bacteria in an intraperitoneal (i.p.) murine model (i.e., bacteria were injected i.p. and lipopeptide compounds were administered intravenously (i.v.)). Mice were infected with Staphylococcus aureus, Streptococcus pneumoniae, or Enterococcus faecalis, which were prepared as follows: S. aureus Smith (SAU0017, ATCC 19636) were grown in culture overnight on trypticase soy broth, harvested and then resuspended in fresh media containing 5% mucin (Sigma Chemical Co.); S. pneumoniae (SPN 0032, ATCC 10813) were grown overnight on blood agar plates and re-suspended in 0.9% sterile saline; and E. faecalis EFS0040 (clinical isolate) were grown overnight in culture on blood heart infusion broth, washed and resuspended in 0.9% saline and mixed with equal volume of sterile fecal rat extract. Swiss CD1 mice were each infected i.p. with bacteria at the following doses: S. aureus at 10^6 CFU/mouse; S. pneumoniae at 10^2 CFU/mouse; or E. faecalis at 10^7.5 CFU/mouse. […] The ED50 for each compound was calculated using the method of Reed and Meunch (Am. J. Hyg. 27: 493, 1938).
# [4] = system: E. faecalis EFS0040 (clinical isolate); assay: as above; type: in vivo, Enterococcus faecalis; conditions: Swiss CD1 mice infected i.p., compound i.v.
# Excerpt: as §1, §2
Compound,MIC used for the PAE experiment (Staphylococcus aureus),Post Antibiotic Effect (hours) 0.5 × MIC (Staphylococcus aureus),Post Antibiotic Effect (hours) 1 × MIC (Staphylococcus aureus),Post Antibiotic Effect (hours) 2 × MIC (Staphylococcus aureus),Post Antibiotic Effect (hours) 4 × MIC (Staphylococcus aureus),ED50 [1],MTD at 7 days [2],"ED50 in Mice, S. pneumoniae (SPN0032) [3]","ED50 in Mice, E. faecalis (EFS0040) [4]"
"CCCCCCCCCCCCCCC(=O)NC(CC(=O)O)C(=O)NC1C(=O)N2CCCCC2C(=O)NC(C(C)C(=O)O)C(=O)NC(CC(=O)O)C(=O)NCC(=O)NC(CC(=O)O)C(=O)NCC(=O)NC(C(C)NC(=O)CNC(=O)[C@@H](N)CCCCN)C(=O)NC(C(C)C)C(=O)N2CCCC2C(=O)NC1C (stereo partly shown) [Compound 4, C15-Amphomycin-9-Gly-Lys]",1 µg/mL,0.6 h,0.7 h,1.9 h,3.0 h,1.3 mg/kg,200 to 400 mg/kg,–,–
"CCCCCCCCCCCCCCC(=O)NC(CC(=O)O)C(=O)NC1C(=O)N2CCCCC2C(=O)NC(C(C)C(=O)O)C(=O)NC(CC(=O)O)C(=O)NCC(=O)NC(CC(=O)O)C(=O)NCC(=O)NC(C(C)NC(=O)CCN)C(=O)NC(C(C)C)C(=O)N2CCCC2C(=O)NC1C (stereo not drawn) [Compound 147, C15-Amphomycin-9-(β-Ala)]",1 µg/mL,1.6 h,1.6 h,1.9 h,1.0 h,–,–,0.65 mg/kg,0.8 mg/kg
"CCCCCCCCCCCCCCC(=O)NC(CC(=O)O)C(=O)NC1C(=O)N2CCCCC2C(=O)NC(C(C)C(=O)O)C(=O)NC(CC(=O)O)C(=O)NCC(=O)NC(CC(=O)O)C(=O)NCC(=O)NC(C(C)NC(=O)CN(C)C(=O)[C@@H](N)CCCCN)C(=O)NC(C(C)C)C(=O)N2CCCC2C(=O)NC1C (stereo partly shown) [Compound 199, C15-Amphomycin-9-Sar-Lys]",–,–,–,–,–,–,200 to 400 mg/kg,–,3 mg/kg
